{"source": "patent US20260263468A1", "about": "(Fundación Instituto de Investigación Sanitaria Fundación …, priority 2023, published 2026)", "key": {"[1]": {"system": "K/B×N serum transfer-induced arthritis", "assay": "Motor activity tests in K/B×N serum transfer arthritis", "type": "in vivo, C57BL/6 mice", "method": "Physical activity tests were performed to assess the motor development of the mice during the arthritic process as follows:\n(§1) Ambulation in 12-week-old male C57BL/6 mice was recorded following the protocol described by Gibbs and Crosbie-Watson (2). Mice were placed in individual recording chambers and were allowed to freely move for 6 min. Distance traveled by each animal was determined using object tracking in Kinovea open-source video analysis software (V 0.9.5).\n(§2) The coordinated motor function of the four limbs was evaluated with the rotarod test (Rotarod, Harvard Apparatus, USA) with male C57BL/6 mice at the age of 12-week-old. Burgos et al. protocol was followed with modifications (76). Mice were first familiarized with the rotarod by letting them stay for 120s on the rod rotating at 4 and 6 rotations per minute (rpm). Motor activity was assessed by training the mice with an accelerated rotarod protocol of three trials, during which the rod accelerated from 4 rpm to 40 rpm within 5 min.\nas §1, with “(see references in ref. 44).” for “(2).”\nThe Grip Strength Meter (Ugo Basile, #47200) was utilized to assess the grip strength peak of the forelimbs. The mouse held onto a bar, and the highest force exerted during the pull was measured in grams using a digital force transducer. In the test, the mouse gripped a bar attached to the force gauge. Next, an investigator pulled the mouse's tail backward. The gauge recorded tension at the moment the mouse released its forepaws from the bar.\nas §2, with “(see references in ref. 44).” for “(76).”"}, "[2]": {"system": "K/B×N serum transfer-induced arthritis", "assay": "Atrogenes mRNA expression (RT-PCR) in gastrocnemius", "type": "in vivo, C57BL/6J mice", "conditions": "RA+Dipy", "method": "Total RNA was isolated from crushed frozen gastrocnemius using TRIzol reagent (Roche Diagnostics, Barcelona, Spain) following manufacturer's instructions. A total of 1 μg RNA was reverse transcribed with a High Capacity cDNA Reverse Transcription Kit (Applied Biosystems, San Francisco, CA, USA) at […], including the following reagents, in the same reaction: RNase Inhibitor 1 U/μL, Random Hexamers […], MgCl2 5 mM, PCR buffer II 1× and dNTPs 1 mM. Relative quantification of gene expression was performed via real-time RT-PCR on a Step One Plus (Applied Biosystems) with Power UP SYBR Green MasterMix according to the manufacturer's protocol. The primers were provided from Sigma-Aldrich according to the primer bank at https://pga.mgh.harvard.edu/primerbank/. Gene expression levels were calculated with the ΔΔCt method."}, "[3]": {"system": "C2C12", "assay": "AMPK phosphorylation assay kit (short time points)", "type": "cell-based", "conditions": "myoblast, 1 μM, 10 min after switching to 2% HS; control 1.97±0.17", "method": "Assay was performed with the AMPK phosphorilation assay kit (Abnova Corporation, Jhouzih St, Taiwan) as manufactor instructions and pAMPK was measured at λex/em 530/585 nm and 360/450 nm for total protein with Tecan Infinite."}, "[4]": {"system": "K/B×N serum transfer-induced arthritis", "assay": "Western blot of gastronemius, acute model"}, "[5]": {"system": "C2C12", "assay": "Western blot of phosphorylated AMPK", "type": "cell-based", "conditions": "1 μM each, day 4; control 1.29±0.27%", "method": "(§3) Cells were lysed with RIPA buffer and protein concentration was determined by BCA. […] Variations in intensity were expressed as % of basal (day 0) and expressed as mean±SEM. All results were calculated as a percentage of non-differentiated controls to minimize the intrinsic variation among different experiments.\nWe next studied if these changes in AMP/ATP ratio had any effect in AMPK activation."}, "[6]": {"conditions": "mice, dipyridamole 25 mg/Kg/day with tenofovir; cited from earlier work"}, "[7]": {"system": "K/B×N serum transfer-induced arthritis", "assay": "Histological analysis of tibialis anterior (H&E, ATPase, picrosirius red, oil red O)", "description": "Analysis of tibialis tissue structure by Hematoxylin and eosin (H&E) staining was performed. Frozen samples were sectioned at 10 μm. For staining and subsequent processing by image segmentation we followed the indications established by Liu et al (53). Briefly, sections were brought from −80° C. to room temperature and immediately immersed in methanol for 30 min to improve fixation and stained with Hematoxylin and eosin. Image analysis was performed with ImagePro 2.2 using the Muscle Morphometry plugin following Liu's protocol.\nH&E staining was performed on frozen tibialis anterior (TA). Frozen samples were section at 10 μm. For staining and subsequent processing by image segmentation we followed the indications established by Liu et al (53). Briefly, sections were brought from −80° C. to room temperature and immediately immersed in methanol for 30 min to improve fixation and stained with hematoxylin and eosin. Image analysis of cross-sectional area (CSA) was performed with ImagePro 2.2 using the Muscle Morphometry plugin following Liu's protocol.\nATPase staining was performed in TA 10 μM cross-sections as previously described (2). Briefly, cross-sections were incubated 45 min in 0.1 M glycine/NaCl buffer pH 9.4 with 0.75 M CaCl2 and 5 mg ATP (Sigma-Aldrich). After rinsed in distilled water, sections were incubated in 2% cobalt chloride, and then immersed in dilute (1/10) ammonium chloride to develop type 1 (white) and type 2 (black) fibers. After dehydration, sections were mounted with DPX mounting medium (VWR International Ltd., Lutterworth, UK). The quantification of the fiber types was performed using the Image J software package 1.49v (NIH, Bethesda, MD, USA).\nPicrosirius Red staining was performed in TA to visualized tissue fibrosis. Slides were air-drayed for 30 min at room temperature and fixed in PFA 4% 30 min. Next, the sections were incubated for 90 min in picrosirius red solution (Polysciences) and immersed immediately in 0.1M HCl solution (Polysciences) for 1 min. The sections were washed 2 times in H2O, dehydrated in serial dilutions of alcohol and mounted with DPX. Bright field and polarized light images were taken. The quantification of infiltration of collagen I were performed using the Image J software package 1.49v (NIH, Bethesda, MD, USA) on polarized images.\nTo visualize triglycerides infiltration in the muscle, serial frozen TA 10 μm cross-sections were thaw and air dry and fixed in PFA 4% for 1 h before oil red O staining. […] Then we isolate the oil red staining retained in muscle with 200 μL of isopropanol in agitation to quantify the fat infiltrated in every muscle. The oil red released was read from 75 μL samples in a 96-well plate by Tecan Spark 20M in duplicate at 500 nm."}, "[8]": {"system": "C2C12", "assay": "cAMP concentration (ELISA)", "type": "cell-based", "conditions": "myoblast, 1 μM, 5 minutes; control 0.58±0.13", "method": "CAMP concentration was measured using the colorimetric cAMP ELISA kit following manufacture protocol for acetylated cell lysates (Cell Biolabs, San Diego, USA). Absorbance was measured at 450 nm using a microplate reader Tecan Spark 20M.\nThe CAMP signaling cascade has been linked to a delay in the onset of age-related muscle loss."}, "[9]": {"system": "C2C12", "assay": "Western blot of myogenesis markers during differentiation", "type": "cell-based", "conditions": "1 μM", "method": "as §3"}, "[10]": {"conditions": "healthy mice, dipy alone vs sham"}, "[11]": {"conditions": "healthy mice, dipyridamole alone, Sham 100±1%"}}, "data": [{"smiles": "OCCN(CCO)c1nc(N2CCCCC2)c2nc(N(CCO)CCO)nc(N3CCCCC3)c2n1", "note": "[dipyridamole, 2,6-bis(Diethanolamino)-4,8-dipiperidinopyrimido[5,4-d]pyrimidine]", "values": [{"measurement": "Ambulatory activity: distance travelled", "setting": "[1]; arthritic mice + dipyridamole, 2 weeks, arthritic 830±37, sham 1393±187", "result": "1203±53", "unit": "cm"}, {"measurement": "Two limb hanging test average score", "setting": "[1]; arthritic mice + dipyridamole, arthritic 3.6±3.3, sham 12±3", "result": "9.8±2"}, {"measurement": "Rotarod latency to fall", "setting": "[1]; arthritic mice + dipyridamole, arthritic 43.3±5.4, sham 75.9±3.3", "result": "73.3±10.9", "unit": "seg"}, {"measurement": "Motor tests (ambulatory activity, grip strength, two limb hanging, rotarod)", "setting": "[1]; [10]", "result": "behave similar"}, {"measurement": "Atrogin-1 mRNA expression", "setting": "[2]; RA 5.40±1.37, Sham 1.94±0.33", "result": "0.29±0.09"}, {"measurement": "Murf1 mRNA expression", "setting": "[2]; RA 8.71±2.75, Sham 1.60±0.35", "result": "1.60±0.22"}, {"measurement": "AMPK activation", "setting": "[3]", "result": "2.89±0.29"}, {"measurement": "CK protein expression", "setting": "[4]; RA+Dipy, RA 77.98±10.81%, Sham 100±0%", "result": "393.4±55.09", "unit": "%"}, {"measurement": "A2B receptor expression in gastronemius", "setting": "[4]; arthritic mice + dipyridamole, arthritic 35±9%, Sham 100±1%", "result": "160±14", "unit": "%"}, {"measurement": "AMPK phosphorylation in gastronemius", "setting": "[4]; arthritic mice + dipyridamole, arthritic 53±7%, sham 100±1%", "result": "152±5", "unit": "%"}, {"measurement": "MHC protein expression in gastronemius", "setting": "[4]; arthritic mice + dipyridamole, arthritic 60±7%, sham 100±1%", "result": "184±6", "unit": "%"}, {"measurement": "A2A receptor expression in gastronemius", "setting": "[4]; arthritic mice + dipyridamole, arthritic 71±3%, Sham 100±1%", "result": "123±6", "unit": "%"}, {"measurement": "Pax7 protein expression in gastronemius", "setting": "[4]; arthritic mice + dipyridamole, arthritic 151±13%, sham 100±1%", "result": "274±11", "unit": "%"}, {"measurement": "p21 protein expression", "setting": "[4]; arthritic mice + dipyridamole, arthritic 221±38%", "result": "64±15", "unit": "%"}, {"measurement": "p16 protein expression", "setting": "[4]; arthritic mice + dipyridamole, arthritic 392±25%", "result": "139±32", "unit": "%"}, {"measurement": "Pax7 and MHC protein expression in gastronemius", "setting": "[4]; [10]", "result": "non-significant increase"}, {"measurement": "A2A receptor expression in gastronemius", "setting": "[4]; [11]", "result": "118.8±11.30", "unit": "%"}, {"measurement": "A2B receptor expression in gastronemius", "setting": "[4]; [11]", "result": "167.6±10.63", "unit": "%"}, {"measurement": "pAMPK expression in gastronemius", "setting": "[4]; [11]", "result": "194.2±5.2", "unit": "%"}, {"measurement": "pAMPK (Western blot)", "setting": "[5]", "result": "2.66±0.7", "unit": "%"}, {"measurement": "Body weight (tenofovir-induced loss)", "setting": "[6]", "result": "recovered"}, {"measurement": "Collagen I fibers (Picrosirius Red)", "setting": "[7]; RA+Dipy, RA 111.1±1.20%, Sham 100±1.26%", "result": "94.78±0.98", "unit": "%"}, {"measurement": "Fat infiltrate in TA (Oil Red staining)", "setting": "[7]; RA+Dipy, RA 170.1±6.94%, Sham 100±3.97%", "result": "99.21±7.217", "unit": "%"}, {"measurement": "Tibialis muscle fiber area", "setting": "[7]; arthritic mice + dipyridamole, acute model, arthritic 508±20, sham 1211±43", "result": "1305±35", "unit": "μm^2"}, {"measurement": "Fat infiltration across whole muscle (TA and EDL)", "setting": "[7]; healthy mice, dipy alone", "result": "able to decrease this fat infiltration"}, {"measurement": "cAMP levels", "setting": "[8]", "result": "0.85±0.17"}, {"measurement": "PAX7 protein expression (% of basal)", "setting": "[9]; day 1, control 315±58%", "result": "revert the effect to control levels"}, {"measurement": "MyoD protein expression (% of basal)", "setting": "[9]; day 2, control 182±8%", "result": "162±29", "unit": "%"}, {"measurement": "Myf5 protein expression (% of basal)", "setting": "[9]; first 2 days of differentiation", "result": "did not modulate"}]}]}
